Test results: patent US8969409B2, “Treatment for pulmonary hypertension” (United Therapeutics Corporation, priority 2010, dated 2015)

What was measured:
[1] = system: pulmonary artery pressure (PAP); assay: Rat model of acute PAH: U-44069 infusion, pulmonary artery pressure by telemetry; format: in vivo
Protocol: This study utilized administration of a thromboxane agonist to elevate pulmonary artery pressure (PAP) in the rat as a model for PAH. Treprostinil was administered to the rats by oral gavage (UT-15C), nose-only inhalation (Tyvaso) or in a combined oral+inhalation regimen, followed by PAP assessment.
Experimental Design: For this study, a rat model of acute PAH was developed with the ability to measure real-time PAP by telemetry from a catheter surgically implanted into the rat pulmonary artery. To induce PAH in this model, a 15 minute intravenous (IV) infusion of the thromboxane agoinst, U44069, was administered, and PAP was monitored and recorded every 5 seconds.
To establish this model, initial testing and optimization of the concentration and infusion rate of the U-44069 was performed to best achieve elevated PAP. […] Following the preliminary individual oral and inhaled treprostinil range-finding studies, a combination administration of oral+inhaled treprostinil was performed.
The animals received U-44069 (0.5 mg/mL) at a dose rate of 10 mL/kg/hr for 15 minutes for a total dose of 1.25 mg/kg/dose. The animals received 3 to 4 IV doses/session, as detailed below.
• 1. Animals were treated as follows: • 2. IV for 15 minutes • 3. Oral gavage, as soon as practicable following the 15-minute infusion • 4. 1 hour following gavage, IV for 15 minutes. • 5. 2 hours following gavage, IV for 15 minutes Dose 2, inhalation:
Animals were treated as follows: • 1. IV for 15 minutes • 2. Inhalation exposure, as soon as practicable following the 15-minute infusion • 3. Approximately 5 minutes after inhalation completion, IV for 15 minutes. • 4. 1 hour later, IV for 15 minutes Dose 3, inhalation and oral gavage:
Animals were treated as follows: • 1. IV for 15 minutes • 2. Oral gavage, as soon as practicable following the 15-minute infusion • 3. Inhalation exposure, as soon as practicable following oral gavage. All animals were exposed to the low dose (5.26 μg/kg). • 4. Approximately 5 minutes after inhalation completion, IV for 15 minutes. • 5. 1 hour later, IV for 15 minutes • 6. 2 hours after oral gavage, IV for 15 minutes for 2 animals (1 low and 1 high oral dose) Inhaled, Oral and Combination Treprostinil Dosing Results: […]

[2] = cited from earlier work
[3] = low pH (stomach); cited from earlier work

## CCCCC[C@H](O)/C=C/[C@H]1[C@@H]2CO[C@@H](C2)[C@@H]1C/C=C\CCCC(=O)O [U-44069]
[1]; IV U-44069 0.5 mg/mL, 10 mL/kg/hr for 15 minutes, all occasions except animal 2001
  maximum PAP during U-44069 infusion relative to baseline: at least 150 % of the baseline

## CCCCC[C@H](O)/C=C/[C@@H]1[C@H]2C/C(=C/CCCC(=O)O)O[C@H]2C[C@H]1O [prostacyclin]
[2]
  half-life in the blood: 3 to 5 min
[3]
  stability at low pH: inactivated by a low pH

## CCCCC[C@H](O)CC[C@@H]1[C@H]2Cc3cccc(OCC(=O)O)c3C[C@H]2C[C@H]1O [treprostinil]
[1]; combination dosing regimen, in magnitude or duration
  PAP reduction when oral treprostinil added to low dose inhaled treprostinil: additional PAP reduction was observed
[1]; inhalation 5.26, 10.6 or 34.1 μg/kg/day, all dose levels, during U-44069 infusion
  PAP following inhalation exposure (immediately post dosing): approximately 120 % the baseline
[1]; inhalation 5.26, 10.6 or 34.1 μg/kg/day, additional U-44069 injection 1 hour after inhalation
  PAP at 1 hr post dosing compared to IPD values: significantly increased
[1]; low dose inhaled (5.26 μg/kg/day) + high oral gavage, versus individual high dose inhalation (34.1 μg/kg/day), sustained to 1 hr PD
  PAP reduction at IPD, combination dosing Group 3: equivalent (#3001) or greater (#3002)
[1]; low dose inhaled (5.26 μg/kg/day) + low (5 mg/kg/dose) oral gavage, versus low dose inhaled alone
  PAP reduction, combination dosing Group 1: sustained effect to 1 hr
[1]; low dose inhaled (5.26 μg/kg/day) + mid (10 mg/kg/dose) oral gavage, versus individual mid-dose inhalation (10.6 μg/kg/day)
  PAP decrease at IPD, combination dosing Group 2: equivalent or greater
[1]; oral gavage 5, 10 or 15 mg/kg/dose, 1 hr PD and 2 hr PD
  PAP after oral gavage: decreases in PAP were generally observed in a dose-related fashion
[1]; oral gavage, nose-only inhalation or combined
  PAP during the PAH condition, any route of administration: generally reduce PAP
